Measurements reported in patent publication US20090203050A1 (The Regents of the University of California, priority 2005, published 2009).
Entries after “also recorded” stand apart in the source; their conditions may differ.

What was measured:
Ramos-RR1 = assay: DNA fragmentation (PI) apoptosis assay, Ramos-RR1
Description: (§1) Percentage of apoptotic cells was determined by evaluation of propidium iodide (PI) stained preparations of cells using an EpicXL flow-cytometer. Cellular debris was excluded from analysis by raising the forward scatter threshold, and DNA content of the intact nuclei was recorded on a logarithmic scale (Nicoletti, I. et al., J. Immunol. Methods, 139:271-9 (1991)). Percent apoptosis is represented as percentage of hypodiploid cells accumulated at sub-G0 phase of cell cycle.
(§2) Cells were left either untreated or pre-treated with DHMEQ (36), bortezomib (Goy, A. et al., Clin. Lymphoma, 4:230-7 (2004)) and PD098059 (Alessi, D. et al., J. Biol. Chem., 270:27489-94 (1995)). Escalating concentrations of various drugs were then added and the percentage of apoptosis was measured.

Daudi-RR1 = assay: DNA fragmentation (PI) apoptosis assay, Daudi-RR1
Description: as §1, §2

NF-κB and AP-1 DBA = assay: EMSA in RR clones; type: cell-based, human
Description: FIG. 8. […] A. Total cell lysates (40 μg) were subjected to western blot analysis using phospho-specific Abs for various components of the NF-κB and ERK1/2 pathways. B. The kinase activity of the IKK complex using IκB-α peptide (aa 1-50 including S^32/36) and ERK1/2 using MAPK kinase substrates 4 (aa 172-192) using immune-complex kinase assay. C. […] 10 μg of nuclear lysates were subjected to EMSA (n=2) (19, 20).
The DBAs were evaluated using biotin-labeled oligonucleotide AP-1 (5′-[…]-3′) (Lee, W et al., Cell, 49:741-52 (1987)) and NF-κB (5′-[…] […]-3′) probes (Harada, H. et al., Mol. Cell Biol., 14:1500-9 (1994)) using EMSA kit (Panomics, Inc., Redwood City, Calif.) according to manufacturer's instructions. 10 μg of nuclear extracts were subjected to […] 5% PAGE and developed (Jazirehi, A. et al., Cancer Research, 64:7117-26 (2004); Jazirehi, A. et al., Cancer Research, 65:264-76 (2005)).
Next, alterations in the DBA of NF-κB and AP-1 in the clones were examined.

[1] = system: 2F7, Ramos and Daudi wild type and RR clones; assay: TRAIL-mediated apoptosis in B-NHL cell lines and RR clones (DNA fragmentation); type: cell-based, human; details: inhibitor pretreatment 2 h, then TRAIL 18 h; rituximab-sensitive and -resistant cells
From the text: Patients with B-NHL respond initially to conventional chemotherapy and/or to immunotherapy with rituximab (alone or in combination with chemotherapy). However, patients develop resistance to these modalities and novel approaches are needed. TRAIL is a cytotoxic molecule that exerts selective anti-tumor cytotoxic activity with minimal toxicity to normal tissues. Further, TRAIL or agonist monoclonal antibody (mAb) to TRAIL receptors, DR4 and DR5, are currently being tested clinically. The present study investigated the sensitivity of B-NHL cell lines to TRAIL-mediated apoptosis using the AIDS-related NHL (ARL) B-cell line, 2F7, and the B-NHL cell lines, Ramos and Daudi. Also, to recapitulate various aspects of acquired rituximab-resistance, we have generated rituximab-resistant (RR) clones from the parental wild type (wt) cells. […] We then examined means to reverse […] resistance. We and others have reported that inhibition of NFκB activity can sensitize TRAIL-resistant tumor cells to TRAIL-induced apoptosis. […] Both the rituximab-sensitive and rituximab-resistant tumor cells were sensitized by these inhibitors, though higher concentrations were required for sensitization of the RR clones. […] Based on the findings, patients with resistant B-NHL can be treated with combination of TRAIL/anti-DR4 or DR5 mAb and NFκB inhibitors. Alternatively, these patients can be treated with agents that up-regulate TRAIL expression on host effectors (e.g., T cells, NK cells) in combination with NFκB inhibitors.

2F7RR1 clone = assay: Chemotherapeutic drug-induced apoptosis in 2F7RR1; type: cell-based
From the text: (§3) Accordingly, we examined whether inhibition of Bcl-2 in 2F7RR1 can reverse chemoresistance. Since Bcl-2 is under the transcriptional regulation of NFκB, we examined the effect of the NF-κB inhibitors Bortezomib and DHMEQ (Kikuchi, et al., Cancer Research, 63:107 (2003)).
(§4) The mechanism by which B-NHL patients resist treatment is not known. […] We examined the effect of various chemical inhibitors of this signaling pathway on chemosensitization.

[2] = system: p38MAPK/NF-κB/YY1/STAT3 signaling pathways, Bcl-2; assay: Molecular analysis of signaling in 2F7RR1; type: cell-based; details: 2F7-RR1
From the text: as §3, §4

RR clones = assay: DNA fragmentation apoptosis assay, RR clones (pooled statements); type: cell-based, human; details: drugs e.g. Paclitaxel, Vincristine, VP-16, CDDP, Adriamycin
Description: Thus, we examined if such sensitizing agents can reverse the resistance in the RR clones.
as §1, §2

[3] = system: PI3K/Akt signaling pathway in Ramos; assay: Western blot of phosphorylated and unphosphorylated Akt / NF-κB pathway proteins in Ramos; type: cell-based, human; details: rituximab 138 nM or (Fab′)2, 20 h
Description: After stimulation, cells (2×10^6 cells) were collected and resuspended with lysis buffer (20 mM Tris-HCl (pH 8.0), 2 mM EDTA, 3% NP-40, 100 mM NaCt, 50 mM NaF, 1 uM PMSF, 1 uM VO4, 5 ug/ml aprotinin, 5 ug/ml leupeptin). After 30 min of incubation on ice, samples were centrifuged at 10,000×g, for 10 min at 4° C. to remove cellular debris. […] The membranes were blocked for 30 min with 5% non-fat dry milk diluted in 0.05% Tween-20 Tris-buffered saline at room temperature and incubated overnight with the primary antibodies. After incubation with the primary antibody against Akt (1:300), Bad, PDK1, (1:500), phospho-specific antibodies against phospho-Akt (Ser 473, Thr 308) (1:300), phospho-PDK1 and phospho-Bad (Serl 36) (both 1:300) for overnight, the membranes were washed and incubated with HRP-coupled secondary antibodies (Cell Signaling, MA, USA). Immunoreactive bands were detected using an enhanced chemiluminiscence system (Amersham Pharmacia Biotech, UK).

Ramos cells = assay: PI flow cytometry apoptosis, chemosensitization of Ramos; type: cell-based, human; details: pretreatment then CDDP 15 μg/ml 24 h
Description: The cells were then washed and fresh medium was added and seeded into 12 well plates (Costar, Cambridge, Mass.). Indicated concentrations of drugs (CDDP, ADR) were then added, and the cells were incubated for another 24 h for maximal cytotoxicity. At the end of the incubation period, the cells were harvested and subjected to propidium iodide (PI) (Molecular Probes, Leiden, Netherlands) staining according to the specifications of the PI staining kit (Roche Diagnostics Corporation, Indianapolis, Ind.) and evaluated by flow cytometric analysis. LY294002 was dissolved in DMSO (Sigma-Aldrich) and added up to 50 uM.
DNA fragmentation was detected by flow cytometric analysis after propidium iodide staining (Alas, S. et al., Cancer Res., 61:5137-44 (2001)). Cells with fragmented DNA were considered as apoptotic. […] Fluorescence was measured on a FACScan flow cytometer (BD Immunocytometry Systems) within 1 h. […] Cellular debris were excluded from analysis by raising the forward scatter threshold, and the DNA content of the intact nuclei was recorded on a logarithmic scale. […]
Ramos B-NHL cells were cultured in 1 ml of Opti-MEM medium without antibiotics and FBS. […] To determine Akt siRNA-induced sensitization to CDDP-induced apoptosis, following transfection the cells were treated with CDDP for 24 h, then fixed and permeabilized for PI staining, and analyzed by flow cytometry as described above.

O=C(NC1=CC(=O)[C@H]2O[C@H]2[C@H]1O)c1ccccc1O [DHMEQ, dehydroxymethylepoxyquinomicin]
enhanced cytotoxicity of drugs by inhibitor (Ramos-RR1): 2.3-5.1 folds
apoptosis, DHMEQ alone (Ramos-RR1; Ramos-RR1, DHMEQ 20 μg/ml): 10.1±2.1%
enhanced cytotoxicity of drugs by inhibitor (Daudi-RR1): 1.4-3.3 folds
apoptosis, DHMEQ alone (Daudi-RR1; Daudi-RR1, DHMEQ 20 μg/ml): 4.9±1.6%
NF-κB and AP-1 DBA (EMSA) (NF-κB and AP-1 DBA): preferentially reduced
sensitization to TRAIL-induced apoptosis [1]: significant augmentation of apoptosis and synergy was achieved
chemosensitization to drug-induced apoptosis (taxol, vincristine, ADR, CDDP, VP16) (2F7RR1 clone): reversal of resistance; also recorded: significantly sensitized
effect on NF-kB, YY1 and Bcl-2 expression [2]: inhibition of NF-kB, YY1 and downregulated Bcl-2 expression
sensitization of RR clones to various chemotherapeutic drugs (RR clones): sensitized

Rituximab (Fab′)2: Fc-devoid Rituximab (Fab′)2
effect on p-Akt (western) [3]: also inhibited p-Akt like rituximab
sensitization to CDDP-induced apoptosis (Ramos cells): sensitize the cells significantly
